The values that follow come from US20250248393A1, “METHOD OF RELEASING A SEMIOCHEMICAL IN THE ENVIRONEMENT BY PASSIVE DIFFUSION, SYSTEM AND MEANS, ESPECIALLY STICKS, TO THIS END, AND USES THEREOF” (SIGNS, priority 2024, published 2025).

For data set [1] the following is noted: cited from earlier work.
A short description of data set [2]: F3 block stability study in sodium stearate aqueous gel (GC-MS). The format is physicochemical. The note with it: after 3 months. Here is the method:
Aqueous sodium stearate gel is a method used by SIGNS for several of the pheromones it markets (pork, poultry, rabbit). The sodium stearate matrix is cast at high temperature (60° C.) and contains 2% pheromone. In this study, matrix samples are taken by coring, and the active ingredients are extracted by apolar solvent, using the SIGNS-validated quality control method. Extracts are analyzed by GC-MS. […] Given this observation, formula F3 cannot be used in blocks for passive diffusion, so a change of galenic formulation is necessary.

Data set [3] can be described thus: F3 migration along the stick (top 1 cm, GC/MS). The data set is classed as physicochemical. The note with it: F3, five sticks. Here is the method: Three devices containing 40 mL of F3 feline facial pheromone product and five […] sticks were prepared and left on diffusion. A t=1 day, T=3 days, T=10 days, T=15 days and T=22 days after preparation of the devices, one stick was taken on each device and 1 cm of the top of each stick was cut, then extracted with acetone 1 h in an ultrasonic bath and analysed by gas chromatography coupled with mass spectrometry (GC/MS). The same analytical parameters were used for the study C with a liquid injection (injected quantity: […]) Blank analysis and matrix blank analysis were also performed.

Data set [4] can be described thus: F3 sticks device, direct diffusion, 40 mL and four sticks (SPME GC/MS). The note with it: four sticks. The format is physicochemical. Here is the method: Three devices containing 40 mL of F3 feline facial pheromone product and four rattan sticks were prepared and left on diffusion. Every Monday, Wednesday and Friday, the diffusion of the pheromone in air was checked by analysis by gas chromatography coupled with mass spectrometer (GC/MS) and SPME (solid phase microextraction) until there is no liquid left (about 22 days).
To that purpose, the studied device was taken and placed into a closed space (in our case an aquarium turned over) containing the SPME fiber as shown on FIG. 24.
The SPME fiber was left for two hours to give the time for the molecules to adsorb on the fiber, then the fiber was injected into the GC/MS instrument for analysis.
Analysis were carried out using gas chromatography with mass spectrometer. The instrument was a GCMS QP2010SE® from Shimadzu with an AOC6000® Autosampler. The separation was performed on a ZB-5 MS® column (30 m×0.25 mm×0.25 μm, stationary phase: 95% Dimethylpolysiloxane, 5% Phenyl-Arylene) from Phenomenex. The GC oven temperature was initially held at 100° C. for 1 minute then increased at a pace of 10° C./min to 120° C. and left at this temperature for 3 minutes. Finally, the oven temperature was increased at a pace of 10° C./min to 240° C. and left at this temperature for 10 minutes. The carrier gas was helium at 1 mL/min. Analysis were performed in split mode using a split/splitless injector (Temperature: 250° C., split: 1:20). The SPME fiber was directly injected into the injector and left for 30 minutes. Separated molecules were detected using a mass spectrometer which was operated in electron impact ionization (EI) in both full scan (FS) and single ion monitoring (SIM) modes, so called FASST (Fast Automated SCAN/SIM type) mode. The interface temperature was set at 300° C. and electron impact source temperature at 250° C. The analyser was a quadrupole.
For the measurement of the relative quantity of active ingredient spreading in air, the area of the chromatographic peak corresponding to the compound was measured using Shimadzu GCMS-Solution software.

Data set [5] in a line: Ratios of molecules diffused through the sticks over time. The format is physicochemical. How it is done: Furthermore, as small molecules diffuse more, it happens that they lose intensity over the course of the study, so the ratios are different 24 hours after immersing the sticks in the liquid and 21 days later. Here are the ratios for each pheromone studied at the start of the study and at the end.

Data set [6] in a line: Direct diffusion of diffuser blocks (SPME GC/MS). The data set is classed as physicochemical. The note with it: despecified pheromone 2%, 4 weeks. How it is done: Analyses were carried out using gas chromatography (GC) coupled to a mass spectrometer (MS) detector, a technique commonly referred to as GCMS. The molecules of interest were extracted using the Solid Phase Micro-Extraction (SPME) technique. The instrument used was the following: QP2010SE® from Shimadzu (See FIG. 4).
AOC 6000® automatic feeder • Extraction/SPME fiber: polyacrylate/Fused silica (85 μm), 23 Ga. • Adsorption time: 2 hours (exposure time of fiber above block) (See FIG. 4) • Desorption time: 30 minutes (fiber exposure time in injector) • Fiber-block distance: 2 cm • Injection: split/splitless injector • Temperature: 250° C., split 50 mode. • Separation: ZB-FFAP® column (Phénomenex), length: 30 m, diameter: 250 μm, film thickness: […]
• Carrier gas: Helium (He) • Analysis time: 18 min (not including time to return to equilibrium between each analysis injection • Detection: mass spectrometer with electron impact source/analyzer: quadrupole. • Source temperature: 200° C. • Interface temperature: 250° C. • Scan m/z 50 to m/z 500 • SIM with ions 55, 66 and 74.
Analyses were carried out in triplicate to verify reproducibility of results.
With the SPME method, results are evaluated by measuring the chromatographic peak area. The data have been plotted on diffusion curve (see FIGS. 5 and 6).

Data set [7] is described as follows: Indirect assay of diffuser blocks (GC/FID, pheromone remaining in the block). The note with it: despecified pheromone. The data set is classed as physicochemical. Here is the method:
Analyses were carried out using the gas chromatography (GC) technique with a flame ionization detector (FID), commonly known as GC/FID. The instrument used was the Shimadzu GC2025.® • Injection: Quantity injected: 1 μL, split 50:1, temperature: 230° C. • Separation: DB-WAX column (Agilent), length: 20 m, diameter: 180 μm, film thickness: […] • Carrier gas: Helium (He) • Analysis time: 11.50 min (not including time to return to equilibrium between each analysis) injection). • Detection: FID, temperature: 250° C., flow rates: H2: 40 mL/min, Air: 400 mL/min, Nitrogen (make-up): 30 mL/min. To obtain a representative sample, “cores” were drilled at various positions in the block and then collected. 2.5 g of gel were weighed into a 50 mL volumetric flask and the volume made up to the beginning of the neck of the flask with acetone. The flask was then placed in an ultrasonic bath for one hour until the block was dissolved (a white precipitate was obtained), then acetone was added to the mark. An aliquot of this solution was placed in a syringe fitted with a syringe filter and filtered to obtain a translucent solution. The resulting solution was transferred to a 1.5 mL GC vial for analysis. The assays were carried out using a calibration range.

The nature of data set [8]: DAP PCDS direct diffusion (SPME-GC/MS). The format is physicochemical. The note with it: DAP/PCDS diffuser, 40 mL, 6 capillaries. How it is done: Three diffusers, each containing 40 mL of solution and 6 capillaries, were prepared and diffused. The first points were measured at T=1d, T=2, and T=3d, then every Monday, Wednesday and Friday of each study week until the diffusers no longer contained any solution. To measure the pheromone released into the air at each study time, the diffuser is first weighed (with the sticks) to measure mass loss, then placed in an enclosed area (in this case, an upside-down aquarium) containing a SPME fiber, as shown in FIG. 24.
The fiber is left to diffuse above the diffuser for 2 hours (a time determined in a previous method development as the optimum time for molecules to adsorb to the phase), then analyzed using the gas chromatography/mass spectrometry (GC/MS) technique.
Three diffusers were studied for greater accuracy. The chromatograms obtained are reprocessed using GC/MS Solution software.
For each chromatographic peak, the area is recorded using GC/MS Solution software, then entered into an Excel spreadsheet. Diffusion curves giving the area of the chromatographic peak corresponding to each active ingredient as a function of time are then plotted.
Analyses were carried out by gas chromatography/mass spectrometry (GC/MS). The instrument was a Shimadzu GCMS QP2010SE® equipped with an AOC 6000® autosampler. Separation was carried out on a ZB-FFAP® column (30 m×0.25 mm×0.25 μm, stationary phase: nitroterephthalic acid-modified polyethylene glycol) supplied by Phenomenex. The furnace temperature was initially set at 80° C. for 1 minute, then increased at 10° C./min to 240° C. and maintained at this temperature for 2 minutes. The carrier gas was helium at a flow rate of 1 mL/min. Analysis time is 19 minutes.
The injector is a split/splitless injector used in split mode (temperature: 250° C., split: 50:1). The SPME fiber was injected directly into the injector and left to desorb for 15 minutes.
The separated molecules were detected using a mass spectrometer equipped with an electron impact source (temperature: 200° C.). The analyzer is a simple quadrupole. The interface temperature is 250° C. Data were acquired in FASST mode (Fast automated SCAN/SIM type), i.e. part of the analysis was performed by scanning all ions (SCAN) and part by selecting specific ions (SIM). Target molecules were thus analyzed using ion selection.

The nature of data set [9]: Indirect assay of rod diffuser solution (GC/FID). The format is physicochemical. The note with it: stick diffuser solution, despecified pheromone. Here is the method: Solution integrity was checked at each analysis time. Before each indirect assay, the vial was weighed to visualize mass loss over time. Each vial contained six sticks. • Specifications: the solution must lose mass over time. • Result: Compliant—See FIG. 9 This is the same analytical method as for the diffuser block study, only the sample preparation differs. 1.25 g of solution were weighed into a 25 mL volumetric flask and the volume made up to the mark with acetone. The resulting solution is transferred to a 1.5 mL GC vial for analysis. This is exactly the same calibration range as for the diffuser block study.

Data set [10] in a line: Pheromone migrated to the stick tips (GC/FID). The format is physicochemical. The note with it: on stick tips, despecified pheromone. Here is the method:
In the course of this study, we also measured the amount of pheromone migrating on the sticks, to check that the pheromone had migrated to the top of the sticks, helping it to diffuse into the air. To do this, the test is the same as for the diffuser blocks: 2.5 g of stick tips are cut off and placed in a 50 mL flask, which is then placed in an ultrasonic bath for one hour. The resulting solution is filtered (to avoid injecting particles into the instrument) and placed in a chromatographic vial for analysis.

[11] abbreviates: F3P, 24 h after immersion of the sticks.
Setting [12] is: F3P, 21 days after immersion of sticks (empty tank).
Where [13] appears, read: DAP, 24 h after immersion of sticks.
The mark [14] stands for this setting: DAP, 21 days after immersion of sticks (empty tank).

Structures are written as SMILES. Like-named read-outs stand apart in the source and are kept apart here.

As a reminder, the vapor pressure is the pressure of vapour in equilibrium with the condensed phase. With `COC(C)(C)CCO` [3-methoxy-3-methyl-1-butanol], the vapor pressure in data set [1] (at 20° C.) is reported as 0.07 kPa; in data set [1] (at 25° C.), 0.12 kPa.

In the case of `COC(=O)CCCCCCCC(=O)OC` [dimethyl azelate, dimethyl nonanedioate], in data set [2], the “stability in the block” value is reported as “disappeared completely”. The “relative quantity on the top of the stick” value in [3] was “less present”. Moreover, the “direct diffusion over time” value in data set [4] is “constant diffusion”. Besides, the “ratio of molecules diffused through the sticks” value (“ratio” for short) in data set [5] (F3, 24 h after immersion of sticks) is listed as 25 % (w/w); in [5] (F3, 21 days after immersion of sticks (empty tank)), 43 % (w/w); in [5] (setting [11]) it was 18 % (w/w); in data set [5] (setting [12]), 31.3 % (w/w).

With `CCCCC/C=C\C/C=C\CCCCCCCC(=O)OC` [methyl linoleate, methyl (9Z,12Z)-octadeca-9,12-dienoate], in data set [6], the “direct diffusion from the diffuser block” value is on record as “lowest intensity”. Also, the “% of the active ingredient in the pheromone” value was found to be 30.4% in data set [7] (day 0); 30.2% in data set [7] (day 7); 30.4% in data set [7] (day 14); 30.5% in data set [7] (day 21); 30.5% in data set [7] (day 28); 30.0% in data set [9] (day 0). Further, the “% of the active ingredient in the pheromone” value is recorded as 30.0% in data set [9] (day 7); 30.1% in data set [9] (day 14); 31.5% in data set [9] (day 21); 29.7% in data set [10] (day 7); 30.1% in [10] (day 14); 28.6% in [10] (day 21). The “direct diffusion over time” value in data set [8] is reported as “slight increase over time”. Moreover, the “ratio” value is given as 3 % (w/w) in data set [5] (setting [13]); 4 % (w/w) in [5] (setting [14]); 2 % (w/w) in data set [5] (Despecified pheromone (Core), 5 days after immersion of the sticks); 4 % (w/w) in data set [5] (Despecified pheromone (Core), 21 days after immersion of sticks (empty tank)); 0.3 % (w/w) in data set [5] (setting [11]); 0.5 % (w/w) in data set [5] (setting [12]).

`CCCCCCCCCCCCCCC(=O)OC` [methyl pentadecanoate]: in data set [8], the “direct diffusion over time” value is listed as “slight increase over time”. Also, the figures for the “ratio” value in [5] (setting [13]) and in data set [5] (setting [14]) were 7 % (w/w) and 9 % (w/w), respectively.

On to `CCCCCCCCCCCCCCCCCC(=O)OC` [methyl stearate, methyl octadecanoate], for which the “direct diffusion over time” value in data set [8] was “diffuses the least”. The “ratio” value is listed as 0.5 % (w/w) in data set [5] (setting [13]), 1 % (w/w) in data set [5] (setting [14]), 0.1 % (w/w) in data set [5] (setting [11]) and 0.1 % (w/w) in [5] (setting [12]).
